Patent US11312723B2, “Pyranopyrazole and pyrazolopyridine immunomodulators for treatment of autoimmune diseases” (The Rockefeller University, priority 2017, dated 2022)

Biological target: Human FXIIa (Homo sapiens (Human), UniProt P00748)
Assay: Factor XIIa (FXIIa) inhibitory activity, chromogenic substrate (Pefachrome XIIa) cleavage
Format: biochemical
Conditions: 10 min pre-incubation, Pefachrome XIIa 400 μM

Sequence of Human FXIIa (P00748 373-615): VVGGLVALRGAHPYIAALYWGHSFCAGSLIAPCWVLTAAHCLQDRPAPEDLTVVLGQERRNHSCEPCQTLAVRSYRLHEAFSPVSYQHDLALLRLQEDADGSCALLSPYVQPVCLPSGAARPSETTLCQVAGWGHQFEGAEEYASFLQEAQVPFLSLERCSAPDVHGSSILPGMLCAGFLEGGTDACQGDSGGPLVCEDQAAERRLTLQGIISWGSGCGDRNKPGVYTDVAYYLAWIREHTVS
Sequence of Human FXIIa (P00748 20-372 partner): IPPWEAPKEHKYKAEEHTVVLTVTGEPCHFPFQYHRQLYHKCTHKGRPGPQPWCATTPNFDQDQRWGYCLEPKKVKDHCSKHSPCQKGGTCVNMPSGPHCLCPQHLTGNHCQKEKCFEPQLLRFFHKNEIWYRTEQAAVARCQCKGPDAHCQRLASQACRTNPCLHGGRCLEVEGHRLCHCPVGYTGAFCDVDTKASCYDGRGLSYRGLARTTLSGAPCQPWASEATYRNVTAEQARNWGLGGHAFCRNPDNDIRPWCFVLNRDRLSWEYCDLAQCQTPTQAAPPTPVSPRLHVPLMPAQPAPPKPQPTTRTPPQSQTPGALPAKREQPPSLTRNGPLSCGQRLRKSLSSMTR

`Nc1nn(C(=O)C2CCNc3ccc(F)cc32)c2c1CCN(S(=O)(=O)CC(F)F)C2` (centres unmarked) [Example 143, (3-amino-6-(2,2-difluoroethyl-sulfonyl)-4,5,6,7-tetrahydro-pyrazolo[3,4-c]pyridin-1-yl)(6-fluoro-1,2,3,4-tetrahydro-quinolin-4-yl)methanone] and `Nc1nn(C(=O)C2CCNc3ccc(F)cc32)c2c1CCN(S(=O)(=O)C(F)F)C2` (centres unmarked) [Example 160, (3-amino-6-(difluoromethyl-sulfonyl)-4,5,6,7-tetrahydro-pyrazolo[3,4-c]pyridin-1-yl)(6-fluoro-1,2,3,4-tetrahydro-quinolin-4-yl)methanone] are within 1.5-fold of each other in IC50: 17 µM for the first, 16 µM for the second.

Going from `Nc1nn(C(=O)C2CCNc3ccc(F)cc32)c2c1CCNC2` (centres unmarked) [Example 148, (3-amino-4,5,6,7-tetrahydro-pyrazolo[3,4-c]pyridin-1-yl)(6-fluoro-1,2,3,4-tetrahydro-quinolin-4-yl)methanone] to `CCN1CCc2c(N)nn(C(=O)C3CCNc4ccc(F)cc43)c2C1` (centres unmarked) [Example 164, (3-amino-6-ethyl-4,5,6,7-tetrahydro-pyrazolo[3,4-c]pyridin-1-yl)(6-fluoro-1,2,3,4-tetrahydro-quinolin-4-yl)methanone], the IC50 falls from 20 µM to 12 µM (1.7-fold). The second is the more potent here.

Compared with `CCCN1CCc2c(N)nn(C(=O)C3CCNc4ccc(F)cc43)c2C1` (centres unmarked) [Example 150, (3-amino-6-propyl-4,5,6,7-tetrahydro-pyrazolo[3,4-c]pyridin-1-yl)(6-fluoro-1,2,3,4-tetrahydro-quinolin-4-yl)methanone], `CC(C)CN1CCc2c(N)nn(C(=O)C3CCNc4ccc(F)cc43)c2C1` (centres unmarked) [Example 154, (3-amino-6-isobutyl-4,5,6,7-tetrahydro-pyrazolo[3,4-c]pyridin-1-yl)(6-fluoro-1,2,3,4-tetrahydro-quinolin-4-yl)methanone] is lower in IC50: > 70 µM for the first, 18 µM for the second.

Going from `Nc1c2c(nn1C(=O)C1CCNc3ccc(F)cc31)CN(S(=O)(=O)c1ccncc1)CC2` (centres unmarked) [Example 155, (3-amino-6-(pyridin-4-ylsulfonyl)-4,5,6,7-tetrahydro-pyrazolo[3,4-c]pyridin-2-yl)(6-fluoro-1,2,3,4-tetrahydro-quinolin-4-yl)methanone] to `Nc1nn(C(=O)C2CCNc3ccc(F)cc32)c2c1CCN(S(=O)(=O)c1ccncc1)C2` (centres unmarked) [Example 156, (3-amino-6-(pyridin-4-ylsulfonyl)-4,5,6,7-tetrahydro-pyrazolo[3,4-c]pyridin-1-yl)(6-fluoro-1,2,3,4-tetrahydro-quinolin-4-yl)methanone], the IC50 rises from 1.2 µM to 14 µM (12-fold). The first is the more potent here.

Going from `Nc1nn(C(=O)C2CCNc3ccc(F)cc32)c2c1CCN(S(=O)(=O)c1cccnc1)C2` (centres unmarked) [Example 158, (3-amino-6-(pyridin-3-ylsulfonyl)-4,5,6,7-tetrahydro-pyrazolo[3,4-c]pyridin-1-yl)(6-fluoro-1,2,3,4-tetrahydro-quinolin-4-yl)methanone] to `CCN1CCc2c(N)nn(C(=O)C3CCNc4ccc(Cl)cc43)c2C1` (centres unmarked) [Example 162, (3-amino-6-ethyl-4,5,6,7-tetrahydro-pyrazolo[3,4-c]pyridin-1-yl)(6-chloro-1,2,3,4-tetrahydro-quinolin-4-yl)methanone], the IC50 falls from 37 µM to 21 µM (1.8-fold).

Going from `CCN1CCc2c(N)nn(C(=O)C3CCNc4c(C)cc(F)cc43)c2C1` (centres unmarked) [Example 172, (3-amino-6-ethyl-4,5,6,7-tetrahydro-pyrazolo[3,4-c]pyridin-1-yl)(6-fluoro-8-methyl-1,2,3,4-tetrahydro-quinolin-4-yl)methanone] to `CCN1CCc2c(N)nn(C(=O)C3CCNc4c(C)cccc43)c2C1` (centres unmarked) [Example 175, (3-amino-6-ethyl-4,5,6,7-tetrahydro-pyrazolo[3,4-c]pyridin-1-yl)(8-methyl-1,2,3,4-tetrahydro-quinolin-4-yl)methanone], the IC50 rises from 4.5 µM to 50 µM (11-fold). The first is the more potent here.

Compared with `Cc1cccc2c1NCCC2C(=O)n1nc(N)c2c1CNCC2` (centres unmarked) [Example 178, (3-amino-4,5,6,7-tetrahydro-pyrazolo[3,4-c]pyridin-1-yl)(8-methyl-1,2,3,4-tetrahydro-quinolin-4-yl)methanone], `Cc1cccc2c1NCCC2C(=O)n1nc(N)c2c1CN(S(=O)(=O)C1CCC1)CC2` (centres unmarked) [Example 184] is 5.5-fold lower in IC50: 60 µM for the first, 11 µM for the second. The second is the more potent here.
